Test results: patent publication US10202412B2, “β-D-2′-deoxy-2′-substituted-4′-substituted-2-substituted-N6-substituted-6-aminopurinenucleotides for the treatment of paramyxovirus and orthomyxovirus infections” (Atea Pharmaceuticals, Inc., priority 2016, dated 2019)

Columns and labels:
[1] = test system: Differentiated normal human bronchial epithelial (dNHBE) cells; assay: dNHBE assay: toxicity evaluated microscopically; type: cell-based; design: unit not given here
Procedure: (§1) Differentiated normal human bronchial epithelial (dNHBE) cells were grown on 6 mm mesh disks in transwell inserts to approximately 1.2×10^6 cells/disk and disks were transferred to individual wells of a 6-well plate. 1 mL of proprietary culture medium was added to the basolateral side of the cells and the apical side was exposed to a humidified 95% air/5% CO2 environment. Cells were cultured at 37° C. for one day and then the mucin layer was removed from the apical side of the cells by repeated (3×) washing with 500 μL 30 mM HEPES buffered saline solution and culture medium on the basal side was replenished.
(§2) Various concentrations of test compounds in medium were applied in duplicate to the apical (140 μL) and basal sides (1 mL) for a 1 hour pre-treatment, followed by addition of 140 μL of virus inoculum to each cell insert on the apical side. The viral inoculum and treatments were removed after 2 hours. Control cells were treated with placebo (culture medium only). Following infection, the apical medium was removed and the basal side was replaced with fresh compound in medium. The cells were maintained at the air-liquid interface, and cell culture medium on the basal side was replaced daily with fresh medium containing test compound. After 4 days, the liquid was removed from the basal side and discarded and virus released into the apical compartment was harvested by the addition of 500 μL of culture medium. The medium was thoroughly mixed, then removed, diluted 1:1 with 40% sucrose and stored at ≤−80° C.
(§3) Concentrations of test compounds that reduced virus yield by 1 log10 (90% effective concentration; EC90) were calculated by regression analysis. The reported EC90 value is the mean of at least two experiments. Potential toxicity of the test compounds was evaluated microscopically.

[2] = test system: Respiratory syncytial virus (RSV) type A, strain A2 (ATCC VR-1540); assay: dNHBE assay: RSV virus yield reduction (EC90); type: cell-based; conditions: human respiratory syncytial virus, RSV (A2) in dNHBE cells; concentration reducing virus yield by 1 log10; mean of at least two experiments
Procedure: as §1
Respiratory syncytial virus (RSV) type A, strain A2 (ATCC VR-1540), previously passaged in MA-104 cells to make working stock cultures, was diluted 1/10 in medium before infection, using a multiplicity of infection (MOI) of ≤0.03 CCID50 per cell.
as §2
To determine the virus titer from each treated cell culture, MA-104 cells were seeded in 96-well plates and grown overnight (37° C.) to confluence. Samples containing virus were diluted in 10-fold increments in infection medium and 200 μL of each dilution transferred into respective wells of a 96-well microtiter plate. Four microwells were used for each dilution to determine 50% viral endpoints. After 7 days of incubation, each well was scored positive for virus if any cytopathic effect was observed as compared with the uninfected control. The virus dose that was able to infect 50% of the cell cultures (CCID50 per 0.1 mL) was calculated by the Reed-Muench method. This was repeated in duplicate for each test sample, so that values reported are an average of 2 independent CCID5o determinations. Untreated, uninfected cell controls were tested as negative controls. Statistical differences in the titers were evaluated with a one-way analysis of variance (ANOVA) followed by Dunnett's multiple comparisons test compared with the untreated virus controls.
as §3

SMILES	Visual toxicity [1]	EC90 [2] [nM]
CNc1nc(N)nc2c1ncn2[C@@H]1O[C@](CF)(CO[P@@](=O)(N[C@@H](C)C(=O)OC(C)C)Oc2ccccc2)[C@@H](O)[C@@H]1F [AT, (S)-Isopropyl 2-(((S)-(((2R,3R,4S,5R)-5-(2-amino-6-(methylamino)-9H-purin-9-yl)-4-fluoro-2-(fluoromethyl)-3-hydroxytetrahydrofuran-2-yl)methoxy)(phenoxy)phosphoryl)amino) propanoate]	>1.6	180
CNc1nc(OC)nc2c1ncn2[C@@H]1O[C@](C)(CO[P@@](=O)(N[C@@H](C)C(=O)OC(C)C)Oc2ccccc2)[C@@H](O)[C@H]1F [AM, (S)-Isopropyl 2-(((S)-(((2R,3R,4R,5R)-5-(6-(methylamino)-2-methoxy-9H-purin-9-yl)-4-fluoro-3-hydroxy-2-methyltetrahydrofuran-2-yl)methoxy)(phenoxy)phosphoryl)amino) propanoate]	>1.7	1100
CC[C@]1(COP(=O)(N[C@@H](C)C(=O)OC(C)C)Oc2ccccc2)O[C@@H](n2cnc3c(NC)nc(N)nc32)[C@H](F)[C@@H]1O (stereo partly drawn) [Compound R, (2S)-Isopropyl 2-(((((2R,3R,4R,5R)-5-(2-amino-6-(methylamino)-9H-purin-9-yl)-2-ethyl-4-fluoro-3-hydroxytetrahydrofuran-2-yl)methoxy)(phenoxy)-phosphoryl)amino) propanoate]	>167	2300
CNc1nc(N)nc2c1ncn2[C@@H]1O[C@@](CO)(CCl)[C@@H](O)[C@H]1F [Compound M, (2R,3R,4R,5R)-5-(2-Amino-6-(methylamino)-9H-purin-9-yl)-2-(chloromethyl)-4-fluoro-2-(hydroxymethyl)tetrahydrofuran-3-ol]	>288	2900
CNc1nc(N)nc2c1ncn2[C@@H]1O[C@](C)(CO[P@@](=O)(N[C@@H](C)C(=O)OC(C)C)Oc2ccccc2)[C@@H](O)[C@H]1F [Compound AC]	>1.4	74
CC(C)OC(=O)[C@H](C)N[P@](=O)(OC[C@@]1(C)O[C@@H](n2cnc3c(NC4CC4)nc(N)nc32)[C@H](F)[C@@H]1O)Oc1ccccc1 [AV, (S)-Isopropyl 2-(((S)-(((2R,3R,4R,5R)-5-(2-amino-6-(cyclopropylamino)-9H-purin-9-yl)-4-fluoro-3-hydroxy-2-methyltetrahydrofuran-2-yl)methoxy)(phenoxy)phosphoryl)amino) propanoate]	>1.6	99
CC(C)OC(=O)[C@H](C)N[P@](=O)(OC[C@@]1(C)O[C@@H](n2cnc3c(N(C)C)nc(F)nc32)[C@H](F)[C@@H]1O)Oc1ccccc1 [Compound AD, (S)-Isopropyl 2-(((S)-(((2R,3R,4R,5R)-5-(6-(dimethylamino)-2-fluoro-9H-purin-9-yl)-4-fluoro-3-hydroxy-2-methyltetrahydrofuran-2-yl)methoxy)(phenoxy)phosphoryl)amino) propanoate]	>16	8400
CC(C)OC(=O)[C@H](C)N[P@](=O)(OC[C@@]1(C)O[C@@H](n2cnc3c(N(C)C4CC4)nc(N)nc32)[C@H](F)[C@@H]1O)Oc1ccccc1 [AS, (S)-Isopropyl 2-(((S)-(((2R,3R,4R,5R)-5-(2-amino-6-(cyclopropyl(methyl)amino)-9H-purin-9-yl)-4-fluoro-3-hydroxy-2-methyltetrahydrofuran-2-yl)methoxy)(phenoxy)phosphoryl)amino) propanoate]	>1.6	1500
CNc1nc(N)nc2c1ncn2[C@@H]1O[C@](C)(CO[P@@](=O)(N[C@@H](C)C(=O)OC(C)C)Oc2ccccc2)[C@@H](O)[C@@H]1F [AK, (S)-Isopropyl 2-(((S)-(((2R,3R,4S,5R)-5-(2-amino-6-(methylamino)-9H-purin-9-yl)-4-fluoro-3-hydroxy-2-methyltetrahydrofuran-2-yl)methoxy)(phenoxy)phosphoryl)amino) propanoate]	>1.7	1100
CNc1nc(F)nc2c1ncn2[C@@H]1O[C@](CCl)(CO[P@@](=O)(N[C@@H](C)C(=O)OC(C)C)Oc2ccccc2)[C@@H](O)[C@H]1F [AJ, (S)-Isopropyl 2-(((S)-(((2R,3R,4R,5R)-5-(6-(methylamino)-2-fluoro-9H-purin-9-yl)-2-(chloromethyl)-4-fluoro-3-hydroxytetrahydrofuran-2-yl)methoxy)(phenoxy)phosphoryl)amino) propanoate]	>1.6	> 1600
CNc1nc(OC)nc2c1ncn2[C@@H]1O[C@](CCl)(CO[P@@](=O)(N[C@@H](C)C(=O)OC(C)C)Oc2ccccc2)[C@@H](O)[C@H]1F [AN, (S)-Isopropyl 2-(((S)-(((2R,3R,4R,5R)-5-(6-(methylamino)-2-methoxy-9H-purin-9-yl)-2-(chloromethyl)-4-fluoro-3-hydroxytetrahydrofuran-2-yl)methoxy)(phenoxy)phosphoryl)amino) propanoate]	>1.6	> 1600
CNc1nc(NC)c2ncn([C@@H]3O[C@](C)(CO[P@@](=O)(N[C@@H](C)C(=O)OC(C)C)Oc4ccccc4)[C@@H](O)[C@H]3F)c2n1 [AU, (S)-Isopropyl 2-(((S)-(((2R,3R,4R,5R)-5-(2,6-bis(methylamino)-9H-purin-9-yl)-4-fluoro-3-hydroxy-2-methyltetrahydrofuran-2-yl)methoxy)(phenoxy)phosphoryl)amino) propanoate]	>1.7	> 1700
CNc1nc(N)nc2c1ncn2[C@@H]1O[C@](CCl)(COP(=O)(N[C@@H](C)C(=O)OC(C)C)Oc2ccccc2)[C@@H](O)[C@H]1F (stereo partly drawn) [Compound N, (2S)-Isopropyl 2-(((((2R,3R,4R,5R)-5-(2-amino-6-(methylamino)-9H-purin-9-yl)-2-(chloromethyl)-4-fluoro-3-hydroxytetrahydrofuran-2-yl)methoxy)(phenoxy)-phosphoryl)amino)propanoate]	>162	830
CNc1nc(F)nc2c1ncn2[C@@H]1O[C@](C)(CO[P@@](=O)(N[C@@H](C)C(=O)OC(C)C)Oc2ccccc2)[C@@H](O)[C@@H]1F [AP, (S)-Isopropyl 2-(((S)-(((2R,3R,4S,5R)-5-(6-(methylamino)-2-fluoro-9H-purin-9-yl)-4-fluoro-3-hydroxy-2-methyltetrahydrofuran-2-yl)methoxy)(phenoxy)phosphoryl)amino) propanoate]	>1.7	34
CC(C)OC(=O)[C@H](C)N[P@](=O)(OC[C@@]1(CCl)O[C@@H](n2cnc3c(N(C)C)nc(N)nc32)[C@H](F)[C@@H]1O)Oc1ccccc1 [AG, (S)-Isopropyl 2-(((S)-(((2R,3R,4R,5R)-5-(2-amino-6-(dimethylamino)-9H-purin-9-yl)-2-(chloromethyl)-4-fluoro-3-hydroxytetrahydrofuran-2-yl)methoxy)(phenoxy)phosphoryl)amino) propanoate]	>15	< 160
CC(C)OC(=O)[C@H](C)N[P@](=O)(OC[C@@]1(C)O[C@@H](n2cnc3c(N(C)C)nc(Cl)nc32)[C@H](F)[C@@H]1O)Oc1ccccc1 [Compound AE, (S)-Isopropyl 2-(((S)-(((2R,3R,4R,5R)-5-(6-(dimethylamino)-2-chloro-9H-purin-9-yl)-4-fluoro-3-hydroxy-2-methyltetrahydrofuran-2-yl)methoxy)(phenoxy)phosphoryl)amino) propanoate]	>16	9300
CNc1nc(N)nc2c1ncn2[C@@H]1O[C@](CCl)(CO[P@@](=O)(N[C@@H](C)C(=O)OC(C)C)Oc2ccccc2)[C@@H](O)[C@@H]1F [AL, (S)-Isopropyl 2-(((S)-(((2R,3R,4S,5R)-5-(2-amino-6-(methylamino)-9H-purin-9-yl)-2-(chloromethyl)-4-fluoro-3-hydroxytetrahydrofuran-2-yl)methoxy)(phenoxy)phosphoryl)amino) propanoate]	>1.6	> 1600
CC(C)OC(=O)[C@H](C)N[P@](=O)(OC[C@@]1(C)O[C@@H](n2cnc3c(N(C)C)nc(N)nc32)[C@H](F)[C@@H]1O)Oc1ccccc1 [AA]	>167	3500
